Laboratory results from PubChem BioAssay (NCI).
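Values below derive from 48-hour exposures of cells grown in 96-well plates, with endpoints linearly interpolated between the two concentrations bracketing the appropriate inhibition level. Definition used: TGI = concentration required for complete inhibition of growth.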

What was measured:
Assay in all cases: growth of human tumour cells (NCI), 48 h
UO-31 renal = system: UO-31 renal
DMS 273 small cell lung = system: DMS 273 small cell lung
SF-295 CNS = system: SF-295 CNS
HOP-62 NSCLC = system: HOP-62 NSCLC
SK-MEL-5 melanoma = system: SK-MEL-5 melanoma
SK-OV-3 ovarian = system: SK-OV-3 ovarian
MOLT-4 leukemia = system: MOLT-4 leukemia
HCT-116 colon = system: HCT-116 colon
SR leukemia = system: SR leukemia
BT-549 breast = system: BT-549 breast

Row | SMILES | TGI (UO-31 renal) | TGI (DMS 273 small cell lung) | TGI (SF-295 CNS) | TGI (HOP-62 NSCLC) | TGI (SK-MEL-5 melanoma) | TGI (SK-OV-3 ovarian) | TGI (MOLT-4 leukemia) | TGI (HCT-116 colon) | TGI (SR leukemia) | TGI (BT-549 breast)
1 | COc1cc(/C=C/C(=O)O)ccc1C(=O)O/C=C/c1ccccc1 | > 100 µM | > 100 µM | > 100 µM | > 100 µM | > 100 µM | > 100 µM | > 100 µM | > 100 µM |  | 
2 | CC(C)(C)N=c1n(C(C)(C)C)oc(=O)n1C(C)(C)C | > 100 µM |  | > 100 µM | > 100 µM | > 100 µM | > 100 µM | > 100 µM | > 100 µM | > 100 µM | > 100 µM
3 | CCCCOC(C)(C)/C=C/C(O)[C@](C)(O)[C@H]1[C@H](O)C[C@@]2(C)[C@@H]3CCc4c(cc(OC5OC(CO)C(O)C(O)C5O)c(O)c4C)C3(C)C(=O)C[C@]12C (some centres undefined) | > 100 µM |  | > 100 µM | > 100 µM | > 100 µM | > 100 µM | > 100 µM | > 100 µM | > 100 µM | > 100 µM
4 | O=C1C(c2c(O)[nH]c3ccc(S(=O)(=O)O)cc23)=Nc2ccccc21 | > 100 µM |  | > 100 µM | > 100 µM | > 100 µM | > 100 µM | > 100 µM | > 100 µM | > 100 µM | > 100 µM
5 | COc1ccc(N[C@H](CSc2ccc(C)cc2)c2ccc(F)cc2)cc1 | > 100 µM |  | > 100 µM | > 100 µM | > 100 µM | > 100 µM | > 100 µM | > 100 µM | > 100 µM | > 100 µM
6 | C/C(N=Nc1nc2ccccc2s1)=C1/C=CC=CN1O | > 100 µM |  | 3.72 µM | > 100 µM | > 100 µM | > 100 µM | > 100 µM | > 100 µM | > 100 µM | > 100 µM
7 | Cc1cc(-c2nc3c(O)cccc3s2)ccc1N | 36.6 µM |  | 72.2 µM | 88.8 µM | > 100 µM | > 100 µM | > 100 µM | 49 µM | 93.8 µM | 58.3 µM
8 | NC(=O)C(=O)N/N=C1/c2ccccc2CC1C1(O)C(=O)Nc2c(Cl)cc(Cl)cc21 (centres undefined) | > 100 µM | > 100 µM | > 100 µM | > 100 µM | > 100 µM | > 100 µM | > 100 µM | > 100 µM | > 100 µM | 
9 | CCC12C[N+]3([O-])CCc4c([nH]c5ccccc45)C(C(=O)OC)(c4cc5c(cc4OC)N(C)C4C(O)(C(=O)OC)C(OC(C)=O)C6(CC)C=CCN7CCC54C76)CC(C3)C1O2 (centres undefined) | 14.4 µM | 12.2 µM | 1.86 µM | > 100 µM | 12 µM | 7.34 µM | 3.44 µM | 11.6 µM |  | 
10 | COc1cc(/C=C2\C(=O)N(C(=O)Cc3ccccc3)N=C2C)ccc1O | > 100 µM | > 100 µM | > 100 µM | > 100 µM | > 100 µM |  | > 100 µM | > 100 µM | > 100 µM | 
11 | O=c1cc(/C=C/c2ccc(O)c(O)c2)oc(/C=C/c2ccc(O)c(O)c2)c1 | 15.8 µM |  | 22.7 µM | 20.2 µM | 13.2 µM | 21.8 µM | 19.9 µM | 15.5 µM | 8.52 µM | 15.2 µM
12 | CCNC(=O)Nc1ccccn1 | > 100 µM |  | > 100 µM | > 100 µM | > 100 µM | > 100 µM | > 100 µM | > 100 µM | > 100 µM | > 100 µM
13 | C/C(=C\c1ccccc1)C(=O)CCN1CCOCC1 | 41.5 µM | 35.3 µM | > 100 µM | > 100 µM | > 60.1 µM | > 100 µM | > 62.3 µM | > 56.4 µM |  | 
14 | C=C(C)CCC(=O)[C@](C)(O)[C@H]1[C@H](O)C[C@@]2(C)[C@@H]3CCc4c(cc(OC5OC(CO)C(O)C(O)C5O)c(O)c4C)C3(C)C(=O)C[C@]12C (some centres undefined) | > 100 µM |  | > 100 µM | > 100 µM | > 100 µM | > 100 µM | > 100 µM | > 100 µM | > 100 µM | > 100 µM
15 | O=C1CCSSCCC(=O)NCCN1 | > 100 µM |  | > 100 µM | > 100 µM | > 100 µM | > 100 µM | > 100 µM | > 100 µM | > 100 µM | > 100 µM
16 | C/C(=N/NC(N)=S)c1ccc2ccccc2c1 |  | 90.9 µM | > 100 µM | > 100 µM | > 100 µM | 51.6 µM | > 100 µM | 78.4 µM | > 100 µM | 
